These are literature values, as cited in publication PMC3184248 (Angewandte Chemie (International ed. in English), 2011).

For data set [1] the following is noted: 1.5T, 37 °C.
The conditions of data set [2]: 1.5T, 37 °C. The source holds these as a separate data set.

Turning to GdDTPA, in data set [1], the relaxivity in buffer is 3.3 mM⁻¹ s⁻¹. Moreover, the relaxivity in plasma in data set [2] was 4.1 mM⁻¹ s⁻¹.
